# Measurements: patent US20230226005A1, “Methods of Treating, Ameliorating, Shortening Duration, and/or Reversing Symptoms and/or Complications of a Coronavirus Infection” (Yale University, priority 2020, published 2023)
# Tested on: SARS-CoV-2
# Assay: Phase IIa double-blind placebo-controlled study, camostat mesylate 200 mg four times daily for seven days: viral load (log10) by COVID-19 RT-PCR of nasopharyngeal swab and saliva
# Format: in vivo
# Settings: for viral load, Fitzmaurice mixed model, Common baseline: day 0; for viral load change Effect (camostat vs placebo), Fitzmaurice mixed model, visit 2 / viral load, Fitzmaurice mixed model, visit 2 / viral load, Fitzmaurice mixed model, visit 2 change: day 2; for viral load change Effect (camostat vs placebo), Fitzmaurice mixed model, visit 3(D4) / viral load, Fitzmaurice mixed model, visit 3(D4) / viral load, Fitzmaurice mixed model, visit 3(D4) change: day 4; for viral load change Effect (camostat vs placebo), Fitzmaurice mixed model, visit 4(D6) / viral load, Fitzmaurice mixed model, visit 4(D6) / viral load, Fitzmaurice mixed model, visit 4(D6) change: day 6
smiles,measurement,setting,value
"CN(C)C(=O)COC(=O)Cc1ccc(OC(=O)c2ccc(NC(=N)N)cc2)cc1 [camostat, 4-[[4-[(Aminoiminomethyl)amino]benzoyl]oxy]benzeneacetic acid 2-(dimethylamino)-2-oxoethyl ester]","viral load, Fitzmaurice mixed model, Common baseline",N gene,"6.5 (6, 6.9) ^ log10"
same,"viral load change Effect (camostat vs placebo), Fitzmaurice mixed model, visit 2",N gene,"−0.06 (−0.83, 0.7) log10"
same,"viral load, Fitzmaurice mixed model, visit 2",N gene,"5.3 (4.6, 5.9) log10"
same,"viral load, Fitzmaurice mixed model, visit 2 change",N gene,"−1.2 (−1.8, −0.6) log10"
same,"viral load change Effect (camostat vs placebo), Fitzmaurice mixed model, visit 3(D4)",N gene,"−0.74 (−1.51, 0.03) log10"
same,"viral load, Fitzmaurice mixed model, visit 3(D4)",N gene,"4.4 (3.8, 5.1) log10"
same,"viral load, Fitzmaurice mixed model, visit 3(D4) change",N gene,"−2 (−2.6, −1.5) log10"
same,"viral load change Effect (camostat vs placebo), Fitzmaurice mixed model, visit 4(D6)",N gene,"−0.23 (−1.4, 0.94) log10"
same,"viral load, Fitzmaurice mixed model, visit 4(D6)",N gene,"2.8 (2, 3.7) ^ log10"
same,"viral load, Fitzmaurice mixed model, visit 4(D6) change",N gene,"−3.6 (−4.5, −2.8) log10"
same,"change in viral load from baseline, Mean","N gene, visit 1 (day 0)",0.00 log10
same,"change in viral load from baseline, Median","N gene, visit 1 (day 0)",0.00 log10
same,viral load (log10) Mean,"N gene, visit 1 (day 0)",6.35 log10
same,viral load (log10) Median,"N gene, visit 1 (day 0)",6.47 log10
same,"change in viral load from baseline, Mean","N gene, visit 2 (day 2)",−1.15 log10
same,"change in viral load from baseline, Median","N gene, visit 2 (day 2)",−1.14 log10
same,viral load (log10) Mean,"N gene, visit 2 (day 2)",4.89 log10
same,viral load (log10) Median,"N gene, visit 2 (day 2)",4.49 log10
same,"change in viral load from baseline, Mean","N gene, visit 3 (day 4)",−2.07 log10
same,"change in viral load from baseline, Median","N gene, visit 3 (day 4)",−2.32 log10
same,viral load (log10) Mean,"N gene, visit 3 (day 4)",4.35 log10
same,viral load (log10) Median,"N gene, visit 3 (day 4)",4.56 log10
same,"change in viral load from baseline, Mean","N gene, visit 4 (day 6)",−3.41 log10
same,"change in viral load from baseline, Median","N gene, visit 4 (day 6)",−3.07 log10
same,viral load (log10) Mean,"N gene, visit 4 (day 6)",2.58 log10
same,viral load (log10) Median,"N gene, visit 4 (day 6)",2.48 log10
same,"change in viral load from baseline, Mean","N gene, visit 5 (day 14)",−5.21 log10
same,"change in viral load from baseline, Median","N gene, visit 5 (day 14)",−5.52 log10
same,viral load (log10) Mean,"N gene, visit 5 (day 14)",1.21 log10
same,viral load (log10) Median,"N gene, visit 5 (day 14)",0.12 log10
same,"change in viral load from baseline, Mean","N gene, visit 6 (day 28)",−6.33 log10
same,"change in viral load from baseline, Median","N gene, visit 6 (day 28)",−6.60 log10
same,viral load (log10) Mean,"N gene, visit 6 (day 28)",0.05 log10
same,viral load (log10) Median,"N gene, visit 6 (day 28)",0.00 log10
same,"change in viral load from baseline, Mean","ORF1ab gene, visit 1 (day 0)",0.00 log10
same,"change in viral load from baseline, Median","ORF1ab gene, visit 1 (day 0)",0.00 log10
same,viral load (log10) Mean,"ORF1ab gene, visit 1 (day 0)",6.17 log10
same,viral load (log10) Median,"ORF1ab gene, visit 1 (day 0)",6.50 log10
same,"change in viral load from baseline, Mean","ORF1ab gene, visit 2 (day 2)",−1.17 log10
same,"change in viral load from baseline, Median","ORF1ab gene, visit 2 (day 2)",−1.04 log10
same,viral load (log10) Mean,"ORF1ab gene, visit 2 (day 2)",4.71 log10
same,viral load (log10) Median,"ORF1ab gene, visit 2 (day 2)",4.20 log10
same,"change in viral load from baseline, Mean","ORF1ab gene, visit 3 (day 4)",−2.14 log10
same,"change in viral load from baseline, Median","ORF1ab gene, visit 3 (day 4)",−2.33 log10
same,viral load (log10) Mean,"ORF1ab gene, visit 3 (day 4)",4.10 log10
same,viral load (log10) Median,"ORF1ab gene, visit 3 (day 4)",4.41 log10
same,"change in viral load from baseline, Mean","ORF1ab gene, visit 4 (day 6)",−3.39 log10
same,"change in viral load from baseline, Median","ORF1ab gene, visit 4 (day 6)",−3.41 log10
same,viral load (log10) Mean,"ORF1ab gene, visit 4 (day 6)",2.42 log10
same,viral load (log10) Median,"ORF1ab gene, visit 4 (day 6)",2.47 log10
same,"change in viral load from baseline, Mean","ORF1ab gene, visit 5 (day 14)",−5.19 log10
same,"change in viral load from baseline, Median","ORF1ab gene, visit 5 (day 14)",−5.61 log10
same,viral load (log10) Mean,"ORF1ab gene, visit 5 (day 14)",1.04 log10
same,viral load (log10) Median,"ORF1ab gene, visit 5 (day 14)",0.00 log10
same,"change in viral load from baseline, Mean","ORF1ab gene, visit 6 (day 28)",−6.15 log10
same,"change in viral load from baseline, Median","ORF1ab gene, visit 6 (day 28)",−6.57 log10
same,viral load (log10) Mean,"ORF1ab gene, visit 6 (day 28)",0.05 log10
same,viral load (log10) Median,"ORF1ab gene, visit 6 (day 28)",0.00 log10
same,"viral load, Fitzmaurice mixed model, Common baseline",ORF1ab,"6.3 (5.8, 6.8) log10"
same,"viral load change Effect (camostat vs placebo), Fitzmaurice mixed model, visit 2",ORF1ab,"0.28 (−0.57, 1.13) log10"
same,"viral load, Fitzmaurice mixed model, visit 2",ORF1ab,"5 (4.3, 5.8) log10"
same,"viral load, Fitzmaurice mixed model, visit 2 change",ORF1ab,"−1.2 (−1.9, −0.6) log10"
same,"viral load change Effect (camostat vs placebo), Fitzmaurice mixed model, visit 3(D4)",ORF1ab,"−0.46 (−1.3, 0.39) log10"
same,"viral load, Fitzmaurice mixed model, visit 3(D4)",ORF1ab,"4.2 (3.5, 4.9) log10"
same,"viral load, Fitzmaurice mixed model, visit 3(D4) change",ORF1ab,"−2.1 (−2.7, −1.5) log10"
same,"viral load change Effect (camostat vs placebo), Fitzmaurice mixed model, visit 4(D6)",ORF1ab,"−0.09 (−1.27, 1.08) log10"
same,"viral load, Fitzmaurice mixed model, visit 4(D6)",ORF1ab,"2.6 (1.8, 3.5) log10"
same,"viral load, Fitzmaurice mixed model, visit 4(D6) change",ORF1ab,"−3.6 (−4.5, −2.7) log10"
same,"viral load, Fitzmaurice mixed model, Common baseline",S gene,"5 (4.1, 5.9) log10"
same,"viral load change Effect (camostat vs placebo), Fitzmaurice mixed model, visit 2",S gene,"0.36 (−0.72, 1.43) log10"
same,"viral load, Fitzmaurice mixed model, visit 2",S gene,"3.6 (2.6, 4.6) log10"
same,"viral load, Fitzmaurice mixed model, visit 2 change",S gene,"−1.4 (−2.2, −0.5) log10"
same,"viral load change Effect (camostat vs placebo), Fitzmaurice mixed model, visit 3(D4)",S gene,"−0.13 (−1.07, 0.8) log10"
same,"viral load, Fitzmaurice mixed model, visit 3(D4)",S gene,"2.7 (1.9, 3.5) log10"
same,"viral load, Fitzmaurice mixed model, visit 3(D4) change",S gene,"−2.3 (−3.1, −1.5) log10"
same,"viral load change Effect (camostat vs placebo), Fitzmaurice mixed model, visit 4(D6)",S gene,"0.19 (−0.98, 1.36) log10"
same,"viral load, Fitzmaurice mixed model, visit 4(D6)",S gene,"1.7 (0.8, 2.6) log10"
same,"viral load, Fitzmaurice mixed model, visit 4(D6) change",S gene,"−3.2 (−4.3, −2.2) log10"
same,"change in viral load from baseline, Mean","S gene, visit 1 (day 0)",0.00 log10
same,"change in viral load from baseline, Median","S gene, visit 1 (day 0)",0.00 log10
same,viral load (log10) Mean,"S gene, visit 1 (day 0)",4.50 log10
same,viral load (log10) Median,"S gene, visit 1 (day 0)",5.02 log10
same,"change in viral load from baseline, Mean","S gene, visit 2 (day 2)",−1.24 log10
same,"change in viral load from baseline, Median","S gene, visit 2 (day 2)",−0.89 log10
